Drawing on patent US20140296484A1, “Cyclin Based Inhibitors of CDK2 and CDK4” (University of South Carolina, priority 2013, published 2014), this text covers IC50 for 1 compound.

Assay [1] addresses CDK2/Cyclin A2 (Homo sapiens, UniProt P20248). Briefly: In vitro kinase assay, 32P filter capture with GST-Rb substrate. It is filed as biochemical.
Assay [2] has as its target CDK2/E (Homo sapiens, UniProt P24864). Briefly: In vitro kinase assay.

What is called IC50 is the concentration needed to halve the response being measured. Take `CC[C@H](C)[C@H](NC(=O)[C@H](CC(C)C)NC(=O)[C@H](CCCNC(=N)N)NC(=O)[C@H](CCCNC(=N)N)NC(=O)[C@H](CCCCN)NC(=O)[C@H](C)NC(=O)[C@@H](N)Cc1c[nH]cn1)C(=O)N[C@@H](Cc1ccco1)C(N)=O` [HAKRRLIX1]: the results for the IC50 in assay [1] and in assay [2] were 6.1 µM and 1.3 µM, respectively.
